The values that follow come from paper PMC10376691, “Inhibition of Acetylcholinesterase and Amyloid-β Aggregation by Piceatannol and Analogs: Assessing In Vitro and In Vivo Impact on a Murine Model of Scopolamine-Induced Memory Impairment” (Antioxidants, 2023).

“Also recorded” adds a separate entry of the source.

Data set [1] has as its system mouse brain microvascular endothelial cell models. Conditions: lipopolysaccharide-induced inflammation and oxidative stress; cited from earlier work.
Data set [2] concerns SH-SY5Y cells. Description: Neuroprotection against Aβ peptide (25–35)-induced cell deaths (MTT). The format is cell-based, human. Conditions: pre-treatment 1, 2 and 10 μM for 24 h, then 40 μg/mL Aβ (25–35) 24 h; vs control p < 0.05. As to the method:
The human SH-SY5Y neuroblastoma cell lines (CRL-2266, Lot No. 58979771) were purchased from American Type Culture Collection (Manassas, VA, USA) and used as models to investigate PIC and its analogs for neuroprotective activities against Aβ-induced cell deaths and the stimulation of neurite outgrowths. The SH-SY5Y cells were grown in DMEM/F-12 medium supplemented with 10% FBS at 37 °C under a humidified atmosphere and 5% CO2 [41]. […]. The SH-SY5Y cells (10,000 cells/well) were seeded and cultured in a DMEM/F-12 medium containing 10% FBS for 24 h at 37 °C under a humidified atmosphere and 5% CO2. […] The medium was then removed, and 40 μg/mL Aβ peptide (25–35) (dissolved in PBS) or an equal aliquot of PBS was added to the medium for another 24 h culture. The MTT was used to evaluate cell viability, and the absorbance at 570 nm was determined. The DMSO used instead of the sample solution was blank (recognized as 100%), and each treatment was expressed as relative cell viability (%). To study the stimulation of neurite outgrowth, the SH-SY5Y cells (5000 cells/well) were seeded on a 96-well plate pre-coated with poly-L-lysine and then cultured in the DMEM/F-12 medium containing 10% FBS overnight at 37 °C under a humidified atmosphere and 5% CO2. After being removed from the culture medium, each PIC, GNT, RHA, and isoRHA (at a final concentration of 10 μM in the 0.1%DMSO) or 0.1% DMSO (the control) was added to the DMEM/F-12 medium containing 10% FBS and refreshed every three days. On day 3 and day 6, each of the culture plates was photographed using an inverted microscope (ECLIPSE TS100, Nikon Instruments Inc., Tokyo, Japan). The culture medium was removed and washed with PBS, and the cultured cells in each well were fixed with 4% paraformaldehyde. To measure cell viability and quantify the neurite outgrowths of the treated SH-SY5Y in a 96-well plate, the neurite outgrowth staining kit (a two-color fluorescence assay kit) was used, following a previous report or the protocol in the manufacturer’s manual (publication number: MAN0007224), which included a cell membrane-stained fluorescent dye (orange-red fluorescence), a cell viability indicator (green fluorescence), and a reagent for background masking. The fluorescence ratios of Ex555nm/Em565nm and Ex495nm/Em515nm were determined for the neurite outgrowths and the cell viabilities, respectively. The value for the control was recognized as 100%, and each treatment was expressed relative to the control.

Data set [3] can be described thus: Neurite outgrowth and cell viability, two-color fluorescence assay kit. The format is cell-based. To be noted: human, 3-day or 6-day treatment, green fluorescence, read-out: cell viability relative to the control. As to the method:
(§1) The SH-SY5Y cells were grown in DMEM/F-12 medium supplemented with 10% FBS at 37 °C under a humidified atmosphere and 5% CO2 [41]. […] The MTT was used to evaluate cell viability, and the absorbance at 570 nm was determined. The DMSO used instead of the sample solution was blank (recognized as 100%), and each treatment was expressed as relative cell viability (%). To study the stimulation of neurite outgrowth, the SH-SY5Y cells (5000 cells/well) were seeded on a 96-well plate pre-coated with poly-L-lysine and then cultured in the DMEM/F-12 medium containing 10% FBS overnight at 37 °C under a humidified atmosphere and 5% CO2. After being removed from the culture medium, each PIC, GNT, RHA, and isoRHA (at a final concentration of 10 μM in the 0.1%DMSO) or 0.1% DMSO (the control) was added to the DMEM/F-12 medium containing 10% FBS and refreshed every three days. On day 3 and day 6, each of the culture plates was photographed using an inverted microscope (ECLIPSE TS100, Nikon Instruments Inc., Tokyo, Japan). The culture medium was removed and washed with PBS, and the cultured cells in each well were fixed with 4% paraformaldehyde. To measure cell viability and quantify the neurite outgrowths of the treated SH-SY5Y in a 96-well plate, the neurite outgrowth staining kit (a two-color fluorescence assay kit) was used, following a previous report or the protocol in the manufacturer’s manual (publication number: MAN0007224), which included a cell membrane-stained fluorescent dye (orange-red fluorescence), a cell viability indicator (green fluorescence), and a reagent for background masking. […] The value for the control was recognized as 100%, and each treatment was expressed relative to the control.

The test system of data set [4] is SH-SY5Y cells. The data set is described as above. The format is cell-based. Conditions: 10 μM, 3-day or 6-day treatment, orange-red fluorescence; vs control. The procedure: as §1

In general, viability refers to the share of living cells, or the viability signal relative to a control. Turning to `Oc1cc(O)cc(C=Cc2ccc(O)c(O)c2)c1` [PIC, 3,5,3′,4′-tetrahydroxystilbene], the BBB integrity entry in data set [1] is recorded as “protect BBB integrity”. In addition, the “neuroprotection: cell viability against Aβ peptide (25–35)-induced cell deaths” value with SH-SY5Y cells [2] is on record as “elevated cell viabilities”. In data set [3], the viability at 10 µM was 80%. The “stimulation of neurite outgrowths” value with SH-SY5Y cells [4] was “not PIC nor GNT; also recorded: not PIC and GNT”.
